# Data as given in patent US11180474B2 (BRISTOL-MYERS SQUIBB COMPANY, priority 2016, dated 2021).
# Tested on: Imiquimod-induced psoriasis
# Experiment: Imiquimod induced psoriasis in mice
# Format: in vivo, mouse
# Conditions: male C57BL/6 mice, vs vehicle control
# Procedure: Imiquimod Induced Psoriasis:
# Male C57BL/6 mice of 8-9 week age were used to evaluate the impact of TLR7/8/9 inhibitors on Imiquimod-induced psoriasis. Mice (7 to 10 per group) were randomized into different treatment groups based on body weight. Mice from the respective treatment groups were treated orally, once daily for 6 days with vehicle or test compound. Psoriasis was induced by application of imiquimod cream on the shaved back region of the mice everyday for 6 days. Disease severity was monitored daily by recording of skin thickness, erythema and scaling. A cumulative disease score was also calculated to reflect the impact on the overall severity of inflammation in this model. At the end of experiment, all mice were euthanized by CO2 asphyxiation and skin samples were subjected for histology. At the end of experiment, one way ANOVA with Dunnett's test was performed to calculate the significance of test compound treated group vs. vehicle control group. Overall percent reduction in imiquimod induced psoriasis was calculated for test compound treated group vs vehicle control group.
# [1] = 0.1 mg/kg orally once daily for 6 days
# [2] = 1 mg/kg orally once daily for 6 days
# [3] = 10 mg/kg orally once daily for 6 days
# [4] = 30 mg/kg orally once daily for 6 days
compound,measurement,setting,value
"COc1ccc(-c2[nH]c3ccc(C4CCN(C(=O)CN(C)C)CC4)cc3c2C(C)C)cc1OC [Example 209, 1-(4-(2-(3,4-dimethoxyphenyl)-3-isopropyl-1H-indol-5-yl)piperidin-1-yl)-2-(dimethylamino)ethan-1-one]",% inhibition Cumulative score,[1],3%
same,% inhibition Erythema,[1],3%
same,% inhibition Scaling,[1],13%
same,% inhibition Skin Thickness,[1],0%
same,% inhibition Cumulative score,[2],27%
same,% inhibition Erythema,[2],26%
same,% inhibition Scaling,[2],38%
same,% inhibition Skin Thickness,[2],18%
same,% inhibition Cumulative score,[3],40%
same,% inhibition Erythema,[3],41%
same,% inhibition Scaling,[3],50%
same,% inhibition Skin Thickness,[3],29%
same,% inhibition Cumulative score,[4],49%
same,% inhibition Erythema,[4],53%
same,% inhibition Scaling,[4],63%
same,% inhibition Skin Thickness,[4],32%
